# Source: article PMC9369335, “Tailoring the Structure of Cell Penetrating DNA and RNA Binding Nucleopeptides” (International Journal of Molecular Sciences, 2022)
# Square brackets hold non-standard residues; d marks the D form. Peptide text beside a SMILES is read from it. * marks the point of attachment. FITC = O=C1OC2(c3ccc(O)cc3Oc3cc(O)ccc32)c2ccc(NC(=S)*)cc21; Acetyl(thymin-1-yl) = Cc1cn(CC(=O)*)c(=O)[nH]c1=O; Dab = NCC[C@H](N)C(=O)O; Ahx = NCCCCCC(=O)O
# Tested on: HT29, CCRF-CEM and Jurkat cells
# Assay: Cellular and nuclear uptake of FITC-labelled nucleopeptides by flow cytometry
# Assay type: cell-based, human
# Settings: 10 µM, 3 h, 37 °C, comparison in words
# Experimental: The promising results achieved with 32 and 33 in terms of DNA and RNA recognition and binding studies prompted us to investigate their capability to cross the cellular membrane and to distribute between cytoplasm and nucleus. Specifically, cell penetration experiments were carried out employing 34 and 35 (the FITC-labelled derivatives of 32 and 33, respectively) on three different cancer cell lines (Jurkat, HT29 and CEM). […]
# The fluorescence of Fluorescein Isothiocyanate (FITC) (excitation 488 nm, emission 525 nm) was used to evaluate the intracellular and intranuclear nucleopeptides uptake using flow cytometry. […] To evaluate cellular uptake, the cell pellets were suspended in 500 µL of PBS and analyzed by flow cytometry. For nuclear uptake, the nuclei were extracted with PBS-Triton (0.5%) for 15 min at room temperature (RT), washed with PBS-Triton (0.1%), suspended in 500 µL of PBS and analyzed by FACS ARIA III flow cytometry (BD Bioscience, Mountain View, CA, USA) with DIVA software 8.01. […] The uptake was evaluated as mean fluorescence and was analyzed using FlowJo 10.7.1 software.
smiles,measurement,setting,value
Cc1cn(CC(=O)NCC[C@H](NC(=O)CCCCCNC(=S)Nc2ccc3c(c2)C(=O)OC32c3ccc(O)cc3Oc3cc(O)ccc32)C(=O)N[C@@H](CCCNC(=N)N)C(=O)N[C@@H](CCNC(=O)Cn2cc(C)c(=O)[nH]c2=O)C(=O)N[C@@H](CCCNC(=N)N)C(=O)N[C@@H](CCNC(=O)Cn2cc(C)c(=O)[nH]c2=O)C(=O)N[C@@H](CCCNC(=N)N)C(=O)N[C@@H](CCNC(=O)Cn2cc(C)c(=O)[nH]c2=O)C(=O)N[C@@H](CCCNC(=N)N)C(=O)N[C@@H](CCNC(=O)Cn2cc(C)c(=O)[nH]c2=O)C(=O)N[C@@H](CCCNC(=N)N)C(=O)N[C@@H](CCNC(=O)Cn2cc(C)c(=O)[nH]c2=O)C(=O)N[C@@H](CCCNC(=N)N)C(N)=O)c(=O)[nH]c1=O [compound 34] ({FITC-Ahx}-[Dab](Acetyl(thymin-1-yl))R[Dab](Acetyl(thymin-1-yl))R[Dab](Acetyl(thymin-1-yl))R[Dab](Acetyl(thymin-1-yl))R[Dab](Acetyl(thymin-1-yl))R[Dab](Acetyl(thymin-1-yl))R-NH2),"concentration in cytoplasm (cellular uptake, mean fluorescence)",1 × 10^6 cells,significantly higher than 35
same,"concentration in nucleus (nuclear uptake, mean fluorescence)",nuclei extracted with PBS-Triton 0.5%,significantly higher than 35
